# Where two headings read alike, the source gives them in different places.
# Experiments:
# [1] = oral absorption and half-life in vivo
# [2] = system: erythromycin A susceptible organisms and Hemophilus influenzae; test: spectrum of antibacterial activity; format: cell-based
# Text: (§1) Generally twelve 2 fold dilutions of the test compound are employed, with initial concentration of the test drug being in the range of 50 to 200 mcg./ml. The susceptibility (MIC) of the test organism is accepted as the lowest concentration of compound capable of producing complete inhibition of growth as judged by the naked eye. A comparison of the activity of 4"-epi-9-deoxo-9a-methyl-9a-aza-9a-homoerythromycin A (IV) with that of an erythromycin A control is shown in replicate in the Table I.
# Staph. aur. 052 = test: MIC in brain heart infusion (BHI) broth; format: cell-based
# Text: as §1
# E. Coli 470 = test: MIC in brain heart infusion (BHI) broth; format: cell-based; conditions: Escherichia coli
# Text: as §1
# Kleb. pn. 031 = test: MIC in brain heart infusion (BHI) broth; format: cell-based
# Text: as §1
# Strep. pneumo. 012 = test: MIC in brain heart infusion (BHI) broth; format: cell-based
# Text: as §1
# Strep. faec. 006 = test: MIC in brain heart infusion (BHI) broth; format: cell-based
# Text: as §1
# E. Coli 266 = test: MIC in brain heart infusion (BHI) broth; format: cell-based; conditions: Escherichia coli
# Text: as §1
# Staph. aur. 400 = test: MIC in brain heart infusion (BHI) broth; format: cell-based
# Text: as §1
# Neiss. sic. 000 = test: MIC in brain heart infusion (BHI) broth; format: cell-based
# Text: as §1
# Ent. cloac. 009 = test: MIC in brain heart infusion (BHI) broth; format: cell-based
# Text: as §1
# Serr. mar. 017 = test: MIC in brain heart infusion (BHI) broth; format: cell-based
# Text: as §1
# E. Coli 125 = test: MIC in brain heart infusion (BHI) broth; format: cell-based; conditions: Escherichia coli
# Text: as §1
# Staph. epi 111 = test: MIC in brain heart infusion (BHI) broth; format: cell-based
# Text: as §1
# Staph. aur. 005 = test: MIC in brain heart infusion (BHI) broth; format: cell-based
# Text: as §1
# Kleb. oxy. 024 = test: MIC in brain heart infusion (BHI) broth; format: cell-based
# Text: as §1
# E. Coli 129 = test: MIC in brain heart infusion (BHI) broth; format: cell-based; conditions: Escherichia coli
# Text: as §1
# Ent. aerog. 040 = test: MIC in brain heart infusion (BHI) broth; format: cell-based
# Text: as §1
# Strep. pyog. 203 = test: MIC in brain heart infusion (BHI) broth; format: cell-based
# Text: as §1
# Prov. strua. 013 = test: MIC in brain heart infusion (BHI) broth; format: cell-based
# Text: as §1
# Kleb. pn. 009 = test: MIC in brain heart infusion (BHI) broth; format: cell-based
# Text: as §1
# Past. mult. 001 = test: MIC in brain heart infusion (BHI) broth; format: cell-based
# Text: as §1
# [3] = microbiological (bioassay) determination of serum levels in rats
# Experimental: Additionally, compound (IV) is tested in vivo by the well-known mouse protection test, or by a microbiological (bioassay) determination of serum levels in a variety of mammals (e.g., mouse, rat, dog).
# H. influ. 042 = test: MIC in brain heart infusion (BHI) broth; format: cell-based, Hemophilus influenzae; conditions: Haemophilus influenzae
# Text: as §1
# H. influ. 036 = test: MIC in brain heart infusion (BHI) broth; format: cell-based, Hemophilus influenzae; conditions: Haemophilus influenzae
# Text: as §1
# H. influ. 038 = test: MIC in brain heart infusion (BHI) broth; format: cell-based, Hemophilus influenzae; conditions: Haemophilus influenzae
# Text: as §1
# H. influ. 081 = test: MIC in brain heart infusion (BHI) broth; format: cell-based, Hemophilus influenzae; conditions: Haemophilus influenzae
# Text: as §1
# H. influ. 051 = test: MIC in brain heart infusion (BHI) broth; format: cell-based, Hemophilus influenzae; conditions: Haemophilus influenzae
# Text: as §1
# H. influ. 012 = test: MIC in brain heart infusion (BHI) broth; format: cell-based, Hemophilus influenzae; conditions: Haemophilus influenzae
# Text: as §1
# H. influ. 073 = test: MIC in brain heart infusion (BHI) broth; format: cell-based, Hemophilus influenzae; conditions: Haemophilus influenzae
# Text: as §1
# H. influ. 078 = test: MIC in brain heart infusion (BHI) broth; format: cell-based, Hemophilus influenzae; conditions: Haemophilus influenzae
# Text: as §1
# [4] = 24 h, Day 1, BHI broth, read-out: MIC
# [5] = 48 h, Day 2, BHI broth, read-out: MIC
smiles,measurement,setting,value
"CC[C@H]1OC(=O)[C@H](C)[C@@H](O[C@H]2C[C@@](C)(OC)[C@H](O)[C@H](C)O2)[C@H](C)[C@@H](O[C@@H]2O[C@H](C)C[C@H](N(C)C)[C@H]2O)[C@](C)(O)C[C@@H](C)CN(C)[C@H](C)[C@@H](O)[C@]1(C)O [Compound (IV), 4""-epi-9-deoxo-9a-methyl-9a-aza-9a-homoerythromycin A]",half-life in vivo,[1]; in vivo,extraordinarily long half-life in vivo
same,oral absorption,[1]; oral,high oral absorption
same,spectrum of antibacterial activity,[2],"relatively broad spectrum of antibacterial activity which includes erythromycin A susceptible organisms and, in addition, fully incorporates the major respiratory pathogen Hemophilus influenzae"
same,MIC,Staph. aur. 052; [4],0.2 µg/mL
same,MIC,Staph. aur. 052; 48 h,0.39 µg/mL
same,MIC,E. Coli 470; [4],0.78 µg/mL
same,MIC,E. Coli 470; [5],0.78 µg/mL
same,MIC,"Kleb. pn. 031; 24 h, Day 1",12.5 µg/mL
same,MIC,"Kleb. pn. 031; 48 h, Day 2",12.5 µg/mL
same,MIC,"Strep. pneumo. 012; 24 h, Day 1",0.025 µg/mL
same,MIC,"Strep. pneumo. 012; 48 h, Day 2",0.025 µg/mL
same,MIC,Strep. faec. 006; 24 h,1.56 µg/mL
same,MIC,Strep. faec. 006; [5],0.78 µg/mL
same,MIC,E. Coli 266; 24 h,3.12 µg/mL
same,MIC,E. Coli 266; 48 h,6.25 µg/mL
same,MIC,Staph. aur. 400; 24 h,3.12 µg/mL
same,MIC,Staph. aur. 400; [5],12.5 µg/mL
same,MIC,Neiss. sic. 000; [4],0.2 µg/mL
same,MIC,Neiss. sic. 000; 48 h,0.39 µg/mL
same,MIC,"Ent. cloac. 009; 24 h, Day 1",25 µg/mL
same,MIC,"Ent. cloac. 009; 48 h, Day 2",25 µg/mL
same,MIC,"Serr. mar. 017; 24 h, Day 1",50 µg/mL
same,MIC,"Serr. mar. 017; 48 h, Day 2",50 µg/mL
same,MIC,E. Coli 125; 24 h,6.25 µg/mL
same,MIC,E. Coli 125; 48 h,6.25 µg/mL
same,MIC,"Staph. epi 111; 24 h, Day 1",0.1 µg/mL
same,MIC,"Staph. epi 111; 48 h, Day 2",0.2 µg/mL
same,MIC,Staph. aur. 005; [4],0.2 µg/mL
same,MIC,Staph. aur. 005; 48 h,0.39 µg/mL
same,MIC,"Kleb. oxy. 024; 24 h, Day 1",12.5 µg/mL
same,MIC,"Kleb. oxy. 024; 48 h, Day 2",12.5 µg/mL
same,MIC,E. Coli 129; 24 h,1.56 µg/mL
same,MIC,E. Coli 129; 48 h,6.25 µg/mL
same,MIC,"Ent. aerog. 040; 24 h, Day 1",12.5 µg/mL
same,MIC,"Ent. aerog. 040; 48 h, Day 2",12.5 µg/mL
same,MIC,"Strep. pyog. 203; 24 h, Day 1",0.025 µg/mL
same,MIC,"Strep. pyog. 203; 48 h, Day 2",0.025 µg/mL
same,MIC,"Prov. strua. 013; 24 h, Day 1",50 µg/mL
same,MIC,"Prov. strua. 013; 48 h, Day 2",50 µg/mL
same,MIC,"Kleb. pn. 009; 24 h, Day 1",12.5 µg/mL
same,MIC,"Kleb. pn. 009; 48 h, Day 2",12.5 µg/mL
same,MIC,Past. mult. 001; [4],0.1 µg/mL
same,MIC,Past. mult. 001; [5],0.1 µg/mL
same,absorption after oral dosage,[3],exceptionally well absorbed
same,serum levels,[3]; oral,exceptionally high and long lasting serum levels
same,MIC,"H. influ. 042; 24 h, Day 1",0.39 µg/mL
same,MIC,"H. influ. 042; 48 h, Day 2",0.39 µg/mL
same,MIC,"H. influ. 036; 24 h, Day 1",0.39 µg/mL
same,MIC,"H. influ. 036; 48 h, Day 2",0.39 µg/mL
same,MIC,H. influ. 038; 24 h,0.39 µg/mL
same,MIC,H. influ. 038; [5],0.78 µg/mL
same,MIC,H. influ. 081; 24 h,0.39 µg/mL
same,MIC,H. influ. 081; [5],0.78 µg/mL
same,MIC,H. influ. 051; 24 h,0.39 µg/mL
same,MIC,H. influ. 051; [5],0.78 µg/mL
same,MIC,"H. influ. 012; 24 h, Day 1",0.39 µg/mL
same,MIC,"H. influ. 012; 48 h, Day 2",0.39 µg/mL
same,MIC,H. influ. 073; 24 h,0.39 µg/mL
same,MIC,H. influ. 073; [5],0.78 µg/mL
same,MIC,"H. influ. 078; 24 h, Day 1",0.39 µg/mL
same,MIC,"H. influ. 078; 48 h, Day 2",0.39 µg/mL
CC[C@H]1OC(=O)[C@H](C)[C@@H](O[C@H]2C[C@@](C)(OC)[C@@H](O)[C@H](C)O2)[C@H](C)[C@@H](O[C@@H]2O[C@H](C)C[C@H](N(C)C)[C@H]2O)[C@](C)(O)C[C@@H](C)C(=O)[C@H](C)[C@@H](O)[C@]1(C)O [Erythromycin A],MIC,Staph. aur. 052; [4],0.1 µg/mL
same,MIC,Staph. aur. 052; [5],0.1 µg/mL
same,MIC,E. Coli 470; 24 h,3.12 µg/mL
same,MIC,E. Coli 470; 48 h,3.12 µg/mL
same,MIC,"Kleb. pn. 031; 24 h, Day 1",> 50 µg/mL
same,MIC,"Kleb. pn. 031; 48 h, Day 2",> 50 µg/mL
same,MIC,"Strep. pneumo. 012; 24 h, Day 1",0.025 µg/mL
same,MIC,"Strep. pneumo. 012; 48 h, Day 2",0.025 µg/mL
same,MIC,Strep. faec. 006; [4],0.78 µg/mL
same,MIC,Strep. faec. 006; [5],0.78 µg/mL
same,MIC,E. Coli 266; [4],> 50 µg/mL
same,MIC,E. Coli 266; [5],> 50 µg/mL
same,MIC,Staph. aur. 400; 24 h,3.12 µg/mL
same,MIC,Staph. aur. 400; 48 h,6.25 µg/mL
same,MIC,Neiss. sic. 000; 24 h,1.56 µg/mL
same,MIC,Neiss. sic. 000; 48 h,3.12 µg/mL
same,MIC,"Ent. cloac. 009; 24 h, Day 1",> 50 µg/mL
same,MIC,"Ent. cloac. 009; 48 h, Day 2",> 50 µg/mL
same,MIC,"Serr. mar. 017; 24 h, Day 1",> 50 µg/mL
same,MIC,"Serr. mar. 017; 48 h, Day 2",> 50 µg/mL
same,MIC,E. Coli 125; [4],> 50 µg/mL
same,MIC,E. Coli 125; [5],> 50 µg/mL
same,MIC,"Staph. epi 111; 24 h, Day 1",0.05 µg/mL
same,MIC,"Staph. epi 111; 48 h, Day 2",0.05 µg/mL
same,MIC,Staph. aur. 005; [4],0.05 µg/mL
same,MIC,Staph. aur. 005; [5],0.05 µg/mL
same,MIC,"Kleb. oxy. 024; 24 h, Day 1",> 50 µg/mL
same,MIC,"Kleb. oxy. 024; 48 h, Day 2",> 50 µg/mL
same,MIC,E. Coli 129; [4],> 50 µg/mL
same,MIC,E. Coli 129; [5],> 50 µg/mL
same,MIC,"Ent. aerog. 040; 24 h, Day 1",> 50 µg/mL
same,MIC,"Ent. aerog. 040; 48 h, Day 2",> 50 µg/mL
same,MIC,"Strep. pyog. 203; 24 h, Day 1",0.025 µg/mL
same,MIC,"Strep. pyog. 203; 48 h, Day 2",0.025 µg/mL
same,MIC,"Prov. strua. 013; 24 h, Day 1",> 50 µg/mL
same,MIC,"Prov. strua. 013; 48 h, Day 2",> 50 µg/mL
same,MIC,"Kleb. pn. 009; 24 h, Day 1",> 50 µg/mL
same,MIC,"Kleb. pn. 009; 48 h, Day 2",> 50 µg/mL
same,MIC,Past. mult. 001; 24 h,1.56 µg/mL
same,MIC,Past. mult. 001; 48 h,1.56 µg/mL
same,MIC,"H. influ. 042; 24 h, Day 1",1.56 µg/mL
same,MIC,"H. influ. 042; 48 h, Day 2",1.56 µg/mL
same,MIC,"H. influ. 036; 24 h, Day 1",6.25 µg/mL
same,MIC,"H. influ. 036; 48 h, Day 2",3.12 µg/mL
same,MIC,H. influ. 038; 24 h,6.25 µg/mL
same,MIC,H. influ. 038; 48 h,3.12 µg/mL
same,MIC,H. influ. 081; 24 h,3.12 µg/mL
same,MIC,H. influ. 081; 48 h,3.12 µg/mL
same,MIC,H. influ. 051; 24 h,3.12 µg/mL
same,MIC,H. influ. 051; 48 h,3.12 µg/mL
same,MIC,"H. influ. 012; 24 h, Day 1",3.12 µg/mL
same,MIC,"H. influ. 012; 48 h, Day 2",1.56 µg/mL
same,MIC,H. influ. 073; 24 h,3.12 µg/mL
same,MIC,H. influ. 073; 48 h,3.12 µg/mL
same,MIC,"H. influ. 078; 24 h, Day 1",1.56 µg/mL
same,MIC,"H. influ. 078; 48 h, Day 2",1.56 µg/mL

# From US4526889A, “Epimeric azahomoerythromycin A derivative, intermediates and method of use” (Pfizer Inc., priority 1984, dated 1985)
